Paper PMC6692352, “DF2726A, a new IL-8 signalling inhibitor, is able to counteract chemotherapy-induced neuropathic pain” (Scientific Reports, 2019)
Entries after “also recorded” stand apart in the source; their conditions may differ.

Columns and labels:
Metabolic stability, rat = format: in vitro ADME; details: Test conc: 2.5 µM
Source text: (§1) Table 1 Physicochemical and in Vitro ADME Properties of DF2726A. | column: DF2726A

hERG channel = target: T1, hERG channel (Homo sapiens, UniProt Q12809); test: hERG inhibition, automated patch clamp (QPatch 16) in CHO-K1 cells; format: cell-based; details: tested at 0.01-1 mM
T1 construct: host or cells: CHO-K1
Procedure: (§2) mM Tris-HCl (pH 8.0), 1.98 mM phenol and 1.02 µM hematine. Thereafter, the reaction was initiated by adding 4 µM (COX1) or 2 µM (COX2) of arachidonic acid and the mixture was incubated for 5 min at RT. For basal control measurements, arachidonic acid was omitted from the reaction mixture. Following incubation, t he reaction was stopped by the addition of 1 M HCl then 1 M Tris/HCl (pH 8.0) followed by cooling to 4°C.
(§3) The fluorescence acceptor (d2 labeled PGE2) and the fluorescence donor (anti -PGE2 antibody labeled with europium Cryptate) were then added. After 120 min, the fluorescence transfer corresponding to the amount of residual PGE2 was measured at λex=337 nm, λem=620 nm and λem=665 nm using a microplate reader (Envision, Perkin Elmer). The enzyme activity was determined by dividing the signal measured at 665 nm by that measured at 620 nm (ratio). The results were expressed as a percent age inhibition of the control enzyme activity. The standard inhibitory reference compound was Diclofenac, which was tested in each experiment at several concentrations to obtain an inhibition curve from which its IC50 value was calculated. […]
The human ether-a-go-go related gene (hERG) inhibition assay was performed by Eurofins Panlabs Inc, USA. […] Single cell ionic currents were measured in the automated patch clamp configuration at room temperature by using QPatch 16 in strument. […]

[1] = pKa, logD7.4, logP (SiriusT3 titration); format: physicochemical
Procedure: (§4) vehicle were seeded in the upper compartment. The two compartments were separated by 5 µm pre-size polycarbonate filter (polyvinylpyrrolidone-free for PMN chemotaxis). The chamber was […]
(§5) Physicochemical characterization […]
(§6) and a turbidity-sensing device. […]
(§7) water/HBSS to a final concentration of 10 μM. Cell membrane homogenates (48 μg protein) were […]

CYP 2C9 = CYP 2C9 (Homo sapiens, UniProt P11712); test: CYP inhibition 2C9; format: in vitro ADME
Source text: as §1

human COX2 = target: T2, human COX2 (Homo sapiens, UniProt P35354); test: COX2 assay, PGE2 formation from arachidonic acid, recombinant enzyme; format: biochemical
T2 construct: host or cells: Sf-9
Procedure: Protein binding in human, dog and rat plasma […]
in DMSO at a final concentration of 2 mM. […]
plasma to obtain a final concentration of 10 µM. Human, dog and rat plasma (200 µL) in triplicate […]
vials for LC-MS/MS analysis. […]
as §2, §3

PI3K/p-cortactin = PI3K/p-cortactin western blotting in F11-derived neurons; format: cell-based; details: 24 h
TRPM8 = test: Western blot of DRG of oxaliplatin rats, TRPM8; format: in vivo, male Wistar rats; details: 30 mg/kg os
Procedure: Animals were sacrificed and dorsal root ganglia (DRG) (L4-L6) were removed and stored at […]. They were homogenized on ice-cold lysis buffer [20 mM Tris–HCl (pH 7.5), 10 mM NaF, 150 mM NaCl, 1% Nonidet P-40, 1 mM phenylmethylsulfonyl fluoride, 1 mM Na3VO4, leupeptin and trypsin inhibitor 10 μg/mL; 20 µl/sample, as previously described.
After 1 h, tissue lysates were obtained by centrifugation at 20,000 g for 15 min at 4 °C. Protein concentrations were estimated by the Bio-Rad protein assay using bovine serum albumin as standard.
DRG lysate proteins (30 μg) were dissolved in Laemmli sample buffer, boiled for 5 min, and separated on SDS-polyacrylamide gel elctrophoresis and transferred onto nitrocellulose membrane (240 mA for 40 min at room temperature). […] The protein bands were scanned and densitometrically analyzed with a model GS-700 imaging densitometer (Bio-Rad Laboratories, Milan, Italy). […]

[2] = Metabolic stability, human; format: in vitro ADME; details: Test conc: 2.5 µM
Source text: as §1

acetylated α-tubulin = test: Acetylated α-tubulin in F11-derived neurons (immunofluorescence, western blotting); format: cell-based; details: 24 h
[3] = test system: spontaneous human polimorphonuclear neutrophil (hPMN) migration; test: Spontaneous hPMN migration; format: cell-based
Source text: chemotherapy-induced neuropathic pain”
Benedetti, Antonio Giordano, Annamaria Cimini, Marcello Allegretti.
Chemokines were from PeproTech (London, UK). Chemicals and cell culture reagents were from Sigma Aldrich (Saint Louis, MI, USA).
Cell isolation and culture
L’Aquila, Italy. Ethical clearance was obtained to perform these experiments. Human PMNs were […]
blood cells as previously described 1.
Cell viability, as measured by Trypan Blue dye exclusion, was greater than 98%. […]
microchemotaxis chamber, as previously described 2. Briefly, 25 µl of control medium (PBS for […]
the lower compartment of the chemotaxis chamber. […]
as §4, §5, §6, §7

[4] = DF2726A 1 µM + oxaliplatin 20 µM

T2 sequence (P35354 18-604): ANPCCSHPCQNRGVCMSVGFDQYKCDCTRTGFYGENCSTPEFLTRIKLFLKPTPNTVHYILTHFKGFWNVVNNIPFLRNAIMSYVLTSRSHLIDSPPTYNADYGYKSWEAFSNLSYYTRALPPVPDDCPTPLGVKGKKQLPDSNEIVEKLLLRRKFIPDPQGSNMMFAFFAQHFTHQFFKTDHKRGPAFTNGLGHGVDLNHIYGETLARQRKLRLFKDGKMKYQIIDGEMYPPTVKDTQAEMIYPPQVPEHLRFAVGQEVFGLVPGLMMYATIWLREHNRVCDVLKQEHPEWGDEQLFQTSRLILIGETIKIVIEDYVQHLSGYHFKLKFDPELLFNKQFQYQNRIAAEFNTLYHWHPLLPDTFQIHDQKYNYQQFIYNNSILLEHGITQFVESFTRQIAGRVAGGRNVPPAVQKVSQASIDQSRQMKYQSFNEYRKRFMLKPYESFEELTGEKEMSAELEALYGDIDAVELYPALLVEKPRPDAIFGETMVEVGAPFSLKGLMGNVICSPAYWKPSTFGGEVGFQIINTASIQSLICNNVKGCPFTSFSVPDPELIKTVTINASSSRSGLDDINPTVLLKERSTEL
Chain of CYP 2C9 (P11712 whole entry): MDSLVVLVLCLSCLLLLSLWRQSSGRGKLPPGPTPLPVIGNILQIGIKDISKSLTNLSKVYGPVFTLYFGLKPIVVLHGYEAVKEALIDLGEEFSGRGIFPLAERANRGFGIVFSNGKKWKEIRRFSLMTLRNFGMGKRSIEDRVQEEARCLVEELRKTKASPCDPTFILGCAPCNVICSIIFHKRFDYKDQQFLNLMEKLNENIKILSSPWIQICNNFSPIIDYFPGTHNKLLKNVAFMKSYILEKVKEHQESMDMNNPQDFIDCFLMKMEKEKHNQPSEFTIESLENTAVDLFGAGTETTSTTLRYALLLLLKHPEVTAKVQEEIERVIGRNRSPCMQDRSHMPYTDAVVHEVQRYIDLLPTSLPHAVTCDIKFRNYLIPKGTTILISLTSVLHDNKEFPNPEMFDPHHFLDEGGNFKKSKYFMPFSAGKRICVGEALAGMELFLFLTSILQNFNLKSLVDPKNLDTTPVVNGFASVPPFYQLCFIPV
T1 sequence (Q12809 whole entry): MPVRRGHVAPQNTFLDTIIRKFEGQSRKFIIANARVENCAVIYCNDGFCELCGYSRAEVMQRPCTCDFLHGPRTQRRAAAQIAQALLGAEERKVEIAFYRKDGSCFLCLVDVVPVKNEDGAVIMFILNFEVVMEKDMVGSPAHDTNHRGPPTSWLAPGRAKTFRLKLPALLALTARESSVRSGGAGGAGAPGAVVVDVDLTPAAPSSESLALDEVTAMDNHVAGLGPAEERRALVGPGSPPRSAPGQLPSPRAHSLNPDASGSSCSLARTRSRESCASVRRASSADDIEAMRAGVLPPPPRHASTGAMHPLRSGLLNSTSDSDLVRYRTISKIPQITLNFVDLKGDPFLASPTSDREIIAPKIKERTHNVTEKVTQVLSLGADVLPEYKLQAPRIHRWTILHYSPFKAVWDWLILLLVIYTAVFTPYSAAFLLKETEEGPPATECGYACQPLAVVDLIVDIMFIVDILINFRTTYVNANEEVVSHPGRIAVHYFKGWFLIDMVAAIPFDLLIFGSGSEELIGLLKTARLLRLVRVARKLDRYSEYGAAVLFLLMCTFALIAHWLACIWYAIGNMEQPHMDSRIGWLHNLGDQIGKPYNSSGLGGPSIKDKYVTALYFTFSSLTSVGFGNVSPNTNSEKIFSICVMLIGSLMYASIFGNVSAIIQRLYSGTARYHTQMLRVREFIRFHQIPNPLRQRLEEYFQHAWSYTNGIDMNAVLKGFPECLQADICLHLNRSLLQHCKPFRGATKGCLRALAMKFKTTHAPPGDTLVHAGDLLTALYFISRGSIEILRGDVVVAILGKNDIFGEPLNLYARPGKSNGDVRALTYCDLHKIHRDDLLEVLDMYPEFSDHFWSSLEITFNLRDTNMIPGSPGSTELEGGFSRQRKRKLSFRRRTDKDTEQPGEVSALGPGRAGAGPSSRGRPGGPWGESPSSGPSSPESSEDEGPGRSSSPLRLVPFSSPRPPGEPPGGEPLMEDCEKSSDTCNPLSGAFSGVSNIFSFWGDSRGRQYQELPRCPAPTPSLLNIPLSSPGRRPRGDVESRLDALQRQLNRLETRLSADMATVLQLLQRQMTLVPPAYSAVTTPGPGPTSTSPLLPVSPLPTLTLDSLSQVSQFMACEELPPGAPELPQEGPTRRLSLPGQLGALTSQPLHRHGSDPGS

## CC(C)(C(=O)O)c1ccc(Nc2nc(C(F)(F)F)cs2)cc1 [DF2726A]
Metabolic stability, rat
  Metabolic stability rat: 15.3 µL/min/10^6 cells
hERG channel
  IC50: > 1000 µM
[1]
  logP: 4.3
[1]; 0.15 M KCl, 25 ± 1°C
  pKa: 4.14
[1]; pH 7.4
  logD7.4: 0.75
CYP 2C9
  IC50: > 30 µM
Human COX2
  COX 2 Inhibition (50 µM): did not inhibit; also recorded: No Inhibition observed
PI3K/p-cortactin; [4]
  PI3K/p-cortactin expression, oxaliplatin-treated neurons: attenuated this effect
PI3K/p-cortactin; DF2726A + paclitaxel 10 nM
  PI3K/p-cortactin expression, paclitaxel-treated neurons: attenuated this effect
TRPM8
  TRPM8 expression in DRG of oxaliplatin rats: significant reduction in the expression
[2]
  Metabolic stability human: 7.0 µL/min/10^6 cells
Acetylated α-tubulin; 1 µM, immunofluorescence
  Acetylated α-tubulin in neurons treated with DF2726A alone: moderately present
Acetylated α-tubulin; [4]
  Acetylated α-tubulin in oxaliplatin-treated neurons, combination with DF2726A: counteracts chemotherapy-mediated effects; also recorded: comparable to that of control cells
Acetylated α-tubulin; DF2726A + paclitaxel 10 nM
  Acetylated α-tubulin in paclitaxel-treated neurons, combination with DF2726A: The same effect was observed; also recorded: comparable to that of control cells
[3]
  Inhibition of spontaneous hPMN migration per se: did not inhibit
